Earlier results in patent US20160199460A1, “COMPOSITIONS FOR REDUCING THE DELETERIOUS EFFECTS OF STRESS AND AGING” (HydroPep, LLC, priority 2010, published 2016).

System: aging individuals (>50 years of age)
Details: oral D-ribose; aging individuals (>50 years of age) with tiredness for at least one month

O=C[C@H](O)[C@H](O)[C@H](O)CO [D-ribose]
Physical fatigue and mental outlook: lessening physical fatigue
